Experimental data taken from patent US8099262B2, “Estimation of clinical cut-offs” (priority 2004, dated 2012).

Experiments:
Assay type in all cases: in vivo
HIV [1] = conditions: for VIROLOGIC RESPONSE Baseline FC for 80% REDUCTION of response (upper cutoff) / VIROLOGIC RESPONSE 20% REDUCTION (fold change, preliminary VirtualPhenotype Clinical Cutoff) / VIROLOGIC RESPONSE 80% REDUCTION (fold change, preliminary VirtualPhenotype Clinical Cutoff): preliminary linear regression analysis; for VIROLOGIC RESPONSE 20% REDUCTION (fold change, preliminary VirtualPhenotype Clinical Cutoff) / VIROLOGIC RESPONSE 80% REDUCTION (fold change, preliminary VirtualPhenotype Clinical Cutoff): virologic response at 8 weeks
Text: Databases of studies for patients with tenofovir containing regimens and consisting of patient baseline demographic characteristics, clinical outcome results with viral load and resistance data (Fold change), were retrieved and remapped according to a common structure allowing a meta-analysis. The structure consisted of baseline sequence, viral load data set, viral load measurements and sampling dates (for example viral load within 3 months of starting new regimen and viral load assessment 8 and/or 24 weeks after beginning new regimen), CD4+ data set which contains CD4+ counts and sampling dates, resistance data set containing the fold changes to different antivirals and sampling dates; patient data set with patient information such as age, gender, race, treatment history; treatment data set with drug regimens, start and stop dates, doses, formulations, frequency of intake, regimen changes after resistance tests. The structure of such a clinical data base can be seen in FIG. 1a.
The viral load response data includes censored (<400 copies/ml) values. Parameters of the underlying uncensored distribution were estimated by maximum likelihood estimation in SAS (proc lifereg). The viral load response data are corrected for baseline viral load and cPSS.
The models applied were linear regression, logistic regression, and a classification tree. These models also took into account effects of the concomitant HIV drugs (PSS), baseline viral load (Baseline Log(V1)i) and, optionally, treatment history in order to avoid bias introduced by imbalances of important characteristics. From the models, a prediction of clinical outcome could be made at different levels of the baseline fold change resistance.
In the linear regression model, the proposed equation was the following: LogVL dropi=β0+β1*Baseline Log(V1)i+β2*PSSi+β3*(1/FC)i+ξi where i represented the patient, β0 the intercept, β1, β2 and β3 coefficients indicated the increase in log viral load drop per unit increase of respectively the baseline log VL, the number of sensitive drugs in the background regimen and the inverse of the baseline fold change. ξi was a random error term indicating the deviation of the patient from the value predicted by the model. Interactions between all the factors were evaluated and other baseline characteristics, i.e treatment history, were added if relevant.
When viral load results under the detection limits are obtained, biases could be introduced if the detection limit values are considered when calculating viral load drops and using those in the linear regression model. To avoid this, censoring needed to be taken into account and therefore the PROC LIFEREG facility in the SAS package was employed.
Clinical responses were predicted in the models developed in previous step 2. […] In order to determine the fold changes at which clinically relevant diminished clinical responses can be observed, three definitions of clinical cut-offs were considered:
The maximum effect was defined as the treatment effect at fold change 1, and the minimum effect was defined as the treatment effect at a very high fold change (i.e. when the curve reached a plateau). The effect range was then the difference between the maximum effect and the minimum effect.

HIV [2] = test system: HIV; design: key to Modelled Lower Cutoff & Confidence Interval / Modelled Upper Cutoff & Confidence Interval: fold change (FC) matching VL drop at 20% and 80% loss of activity; conditions: for Modelled Lower Cutoff & Confidence Interval / Modelled Upper Cutoff & Confidence Interval: preferred embodiment of linear regression
Text: In a preferred embodiment of the linear regression model, more factors are included in order to obtain a more refined prediction of viral load response. These factors include for example a sensitivity score per drug class in addition to the overall sensitivity score of the background treatment (cPSS), previous exposure to the drug (naïve (Yes/No), naïve to PIs, naïve to NRTI's, etc. . . . ). Furthermore, in the preferred embodiment, the fold change is transformed before inserting the figures into the model. The transformation to the fold change comprises a power-transformation ranging from FC^−3 to FC^1. In addition, a quadratic term in cPSS is preferably added.
The NRTI[naïve] value represents whether the patient is naïve to nucleoside RT inhibitors. If yes, value=1, if no, value=0. The PSS[NRTI} represents the phenotypic sensitivity score for NRTIs, i.e the number of active NRTIs in the background regimen for the patient.
Stage 3: Determine Fold change equivalent to VL drop at 20% and 80% loss of activity by inserting values for VL drop into the above equation and calculating FC. […]

HIV [3] = conditions: for Test Data BCO Odds Ratio / Validation Data BCO Odds Ratio: biological cutoffs; for Test Data CCO Odds Ratio / Validation Data CCO Odds Ratio: clinical cutoffs
Text: Further factors which may be taken into account when validating the model are the odds ratios determined using clinical cutoffs compared to those determined using biological cutoffs. These ratios represent the odds of being a responder in the group that is labeled resistant by the cutoffs divided by the odds of being a responder in the group that is labeled sensitive by the cutoffs. In this way it is possible to evaluate how well the cutoffs perform on a drug by drug basis. The further away that the odds ratio is from 1, the stronger the correlation between the resistance class and clinical outcome. The odds ratio as specified above yield numbers smaller than 1 as the odds of being a responder should be smaller in the higher resistance class. Put another way, the probability of response will decrease as the resistance increases. Additionally, if the odds ratio for the CCO is smaller than the odds ratio for the BCO, it can be concluded that the CCO is stronger correlated with clinical outcome and therefore gives a better prediction than the BCO.
A logistic regression model may be used to determine the odds ratio. The model used is the same as the logistic regression model described above except that the fold change in the model is replaced by the resistance class. The coefficient for the resistance class that is obtained from the model is the log (odds ratio). The advantage of using this model is that the odds ratio estimates can be adjusted for the baseline viral load and the cPSS score of the background regimen.
The columns headed CCO Odds Ratio and BCO Odds Ratio represent the odds of being a responder in the group that is labeled resistance by the cutoffs divided by the odds of being a responder in the group that is labeled sensitive by the cutoffs. For example, if there are four non-responders and one responder in the resistant group, and four responders and two non-responders in the sensitive group, the odds of being a responder in the resistant group is 1:4=0.25 and the odds of being a responder in the sensitive group is 4:2=2. […] The further away that the odds ratio is from 1, the stronger the correlation between the resistance class and clinical outcome.
The separation in groups (resistance/sensitive) can be done based on clinical cutoffs or biological cutoffs. This means that odds ratios based on clinical cutoffs (CCO) and odds ratios based on biological cutoffs (BCO) can be compared. If the odds ratio for the CCO is smaller than the odds ratio for the BCO, it can be concluded that the CCO gives a better prediction than the BCO.
In practice, a logistic regression model is used to determine the odds ratio. The model used is similar to logistic regression model described earlier except that the fold change in the model is replaced by the resistance class. The coefficient for the resistance class that is obtained from the model is the log (odds ratio). The advantage of using this model is that the odds ratio estimates can be adjusted for the baseline viral load and the cPSS score of the background regimen. […] In this case, a larger odds ratio indicates a stronger correlation with clinical outcome.

[4] = Log(BaselineVL)=4, cPSS=2, PSS[NRTI]=1, NRTI[naïve]=0
[5] = definition 2, Log(BaselineVL)=4, reference fold changes 0.9 and 3, cPSS=2, PSS[NRTI]=1, NRTI[naïve]=0
[6] = Definition 1, log baseline viral load of 5, no active drugs in addition

With `CC(C)CN(C[C@@H](O)[C@H](Cc1ccccc1)NC(=O)O[C@H]1CCOC1)S(=O)(=O)c1ccc(N)cc1` [APV, amprenavir] the “clinical cutoff for 80% reduced response (upper clinical cutoff)” value (HIV [1]; definition 2, after 8 weeks) was 3.4.
With `Cc1cn([C@H]2C=C[C@@H](CO)O2)c(=O)[nH]c1=O` [D4T, stavudine] the “Fold change equivalent to VL drop at 20% loss of activity” value (HIV [2]; [4]) was 1.08, the “Fold change equivalent to VL drop at 80% loss of activity” value (HIV [2]; [4]) was 2.18 and the “VL drop when drug has lost 20% of its activity” value (HIV [2]; [4]) was −2.76. The “VL drop when drug has lost 80% of its activity” value (HIV [2]; [4]) was −2.21, the “modelled lower clinical cutoff (CCO)” value (HIV [2]; [5]) was 1.1 and the “modelled upper clinical cutoff (CCO)” value (HIV [2]; [5]) was 2.2. For the same compound, the “VL drop at the lower reference FC (drug is fully active)” value (HIV [2]; lower reference fold change=0.9, Log(BaselineVL)=4, cPSS=2, PSS[NRTI]=1, NRTI[naïve]=0) was −2.94, the “VL drop at the upper reference FC (minimal activity of the drug)” value (HIV [2]; upper reference fold change=3, Log(BaselineVL)=4, cPSS=2, PSS[NRTI]=1, NRTI[naïve]=0) was −2.03 and the “fold change at predicted viral load drop of −0.2 logs” value (HIV [1]; [6]) was 4.0. For the same compound, the “fold change at predicted viral load drop of −0.6 logs” value (HIV [1]; [6]) was 2.6 and the “predicted viral load drop for any fold change” value (HIV [1]; Definition 1, log baseline viral load of 5, two active drugs in addition) was “more than 0.6 log copies/mL”.
For `CC(C)(C)NC(=O)[C@@H]1CN(Cc2cccnc2)CCN1C[C@@H](O)C[C@@H](Cc1ccccc1)C(=O)N[C@H]1c2ccccc2C[C@H]1O` [IDV, indinavir], the “clinical cutoff for 80% reduced response (upper clinical cutoff)” value (HIV [1]; definition 2, after 8 weeks) was 3.4.
In the case of `Cc1ccnc2c1NC(=O)c1cccnc1N2C1CC1` [NVP, neviripine], the “Modelled Lower Cutoff & Confidence Interval” value (HIV [2]) is reported as 1.5, the “Modelled Upper Cutoff & Confidence Interval” value (HIV [2]) is reported as 3.2 and the “Test Data BCO Odds Ratio” value (HIV [3]) is reported as 0.290. For the same compound, the “Test Data CCO Odds Ratio” value (HIV [3]) was 0.282, the “Validation Data BCO Odds Ratio” value (HIV [3]) was 0.054 and the “Validation Data CCO Odds Ratio” value (HIV [3]) was 0.054.
For Indinavir/r [IDV/r], the “Modelled Lower Cutoff & Confidence Interval” value (HIV [2]) was 4.1, the “Modelled Upper Cutoff & Confidence Interval” value (HIV [2]) was 21.2 and the “VIROLOGIC RESPONSE Baseline FC for 80% REDUCTION of response (upper cutoff)” value (HIV [1]; definition 2) was 25. The “VIROLOGIC RESPONSE 20% REDUCTION (fold change, preliminary VirtualPhenotype Clinical Cutoff)” value (HIV [1]) was 3.5, the “VIROLOGIC RESPONSE 80% REDUCTION (fold change, preliminary VirtualPhenotype Clinical Cutoff)” value (HIV [1]) was 25 and the “Test Data BCO Odds Ratio” value (HIV [3]) was 0.122. The “Test Data CCO Odds Ratio” value (HIV [3]) was 0.027, the “Validation Data BCO Odds Ratio” value (HIV [3]) was 0.038 and the “Validation Data CCO Odds Ratio” value (HIV [3]) was 0.012.
amprenavir/r [APV/r] was tested, and the “Modelled Lower Cutoff & Confidence Interval” value (HIV [2]) was 0.9, the “Modelled Upper Cutoff & Confidence Interval” value (HIV [2]) was 6.5 and the “clinical cutoff for 20% reduced response (lower clinical cutoff)” value (HIV [1]; definition 2, after 8 weeks) was 1.5. The “clinical cutoff for 80% reduced response (upper clinical cutoff)” value (HIV [1]; definition 2, after 8 weeks) was 6.8, the “VIROLOGIC RESPONSE Baseline FC for 80% REDUCTION of response (upper cutoff)” value (HIV [1]; definition 2) was 6.8 and the “VIROLOGIC RESPONSE 20% REDUCTION (fold change, preliminary VirtualPhenotype Clinical Cutoff)” value (HIV [1]) was 1.5. The “VIROLOGIC RESPONSE 80% REDUCTION (fold change, preliminary VirtualPhenotype Clinical Cutoff)” value (HIV [1]) was 6.8, the “Test Data BCO Odds Ratio” value (HIV [3]) was 0.053 and the “Test Data CCO Odds Ratio” value (HIV [3]) was 0.005.
